# Experimental data: US11786492B2, “Therapeutic agent for phosphodiesterase inhibition and its related disorders” (Novalead Pharma Inc, priority 2017, dated 2023)
# Tests used:
# Human IL-22 = test: IL-22 release from stimulated PBMCs, ELISA; type: cell-based; details: 1 μM; PMA+Ionomycin, 18 hrs
# Procedure: (§1) Fresh human blood from healthy volunteer was collected in anticoagulant (5 mM) ethylene diamine tetra acetic acid (EDTA) containing tubes. The growth medium used was RPMI-1640 medium (with 3% FBS) and incubated at 37° C. for 60 mins in a 5% CO2 incubator with vehicle used as 1% DMSO. The cell viability was checked at various time points using Alamar blue and fluorescence readings were taken at excitation of 544 nm and emission of 590 nm.
# (§2) PBMCs were stimulated with different stimulators as follows: • a. Cells were exposed to stimulator LPS at 100 ng/mL for 18 hrs to stimulate TNF-α, IL-6, IFN-γ, IL10, IL-1β • b. Cells were exposed to stimulator IFN-γ+LPS at 100 ng/mL+1 μg/mL for 18 hrs to stimulate IL-12 • c. Cells were exposed to stimulator PMA+Ionomycin at 50 ng/mL+1 μg/mL for 18 hrs to stimulate IL-23, IL-22, IL-17A, IL-17F
# (§3) After 18 hrs supernatants were collected and centrifuged to remove any cell debris and aliquots were used for ELISA.
# Human IL-17A = test: IL-17A release from stimulated PBMCs, ELISA; type: cell-based; details: 1 μM; PMA+Ionomycin, 18 hrs
# Procedure: as §1, §2, §3
# TNF-α = TNF-α release from stimulated HaCaT cells, ELISA; type: cell-based, human; details: 1 μM; IFN-γ 50 ng/mL, 48 hrs
# Procedure: (§4) HaCaT cells were maintained in T-75 cm2 flask in Dulbecco's modified Eagle medium supplemented with FBS (10%), L-glutamine (2 mM), penicillin (100 ug/ml), streptomycin (100 ug/ml) at 37° C. in 5% CO2 incubator. Cell growth was maintained to 70-80% confluence for seeding and vehicle used was 1% DMSO. The cell viability was checked at various time points using Alamar blue and fluorescence readings were taken at excitation of 544 nm and emission of 590 nm.
# (§5) HaCaT cells were stimulated with different stimulators as follows: • a. Cells were exposed to stimulator LPS at 1 μg/mL for 48 hrs to stimulate IL-1β • b. Cells were exposed to stimulator IFN-γ at 50 ng/mL for 48 hrs to stimulate TNF-α, IL-6
# (§6) After 48 hrs supernatants were collected and centrifuged to remove any cell debris and aliquots were used for ELISA.
# Human IL-6 = test: IL-6 release from stimulated PBMCs, ELISA; type: cell-based; details: 1 μM; LPS 100 ng/mL, 18 hrs
# Procedure: as §1, §2, §3
# IL-6 = IL-6 release from stimulated HaCaT cells, ELISA; type: cell-based, human; details: 1 μM; IFN-γ 50 ng/mL, 48 hrs
# Procedure: as §4, §5, §6
# Human IL-17F = test: IL-17F release from stimulated PBMCs, ELISA; type: cell-based; details: 1 μM; PMA+Ionomycin, 18 hrs
# Procedure: as §1, §2, §3
# Human TNF-α = test: TNF-α release from stimulated PBMCs, ELISA; type: cell-based; details: 1 μM; LPS 100 ng/mL, 18 hrs
# Procedure: as §1, §2, §3
# Human IL-10 = test: IL-10 release from stimulated PBMCs, ELISA; type: cell-based; details: 1 μM; LPS 100 ng/mL, 18 hrs
# Procedure: as §1, §2, §3
# HaCaT cells = test: Cell viability of HaCaT cells, Alamar blue; type: cell-based, human; details: 3 μM
# Procedure: as §4
# human PBMCs = test: Cell viability of human PBMCs, Alamar blue; type: cell-based; details: 3 μM
# Procedure: as §1
# Human IL-1β = test: IL-1β release from stimulated PBMCs, ELISA; type: cell-based; details: 1 μM; LPS 100 ng/mL, 18 hrs
# Procedure: as §1, §2, §3
# Human IL-12 = test: IL-12 release from stimulated PBMCs, ELISA; type: cell-based; details: 1 μM; IFN-γ+LPS, 18 hrs
# Procedure: as §1, §2, §3
# Human IFN-γ = test: IFN-γ release from stimulated PBMCs, ELISA; type: cell-based; details: 1 μM; LPS 100 ng/mL, 18 hrs
# Procedure: as §1, §2, §3
structure (smiles),measurement,setting,value
C[C@@H]1C[C@H]2[C@@H]3CCC4=CC(=O)C=C[C@]4(C)[C@@]3(F)[C@@H](O)C[C@]2(C)[C@@]1(O)C(=O)CO [Dexamethasone],Human IL-22 concentration,Human IL-22,2496 pg/mL
same,Human IL-17A concentration,Human IL-17A,186 pg/mL
same,TNF-α Conc.,TNF-α,3.2 ± 0 pg/mL
same,Human IL-6 concentration,Human IL-6,3052 pg/mL
same,IL-6 Conc.,IL-6,33 ± 1 pg/mL
same,Human IL-17F concentration,Human IL-17F,322 pg/mL
same,Human TNF-α concentration,Human TNF-α,325 pg/mL
same,Human IL-10 concentration,Human IL-10,710 pg/mL
same,% Viability (±S.E.M.),HaCaT cells; 24 hrs,46 ± 3%
same,% Viability (±S.E.M.),HaCaT cells; 48 hrs,18 ± 2%
same,% Viability (±S.E.M.),HaCaT cells; 72 hrs,8 ± 0%
same,% Viability (±S.E.M.),human PBMCs; 24 hrs,82 ± 6%
same,% Viability (±S.E.M.),human PBMCs; 48 hrs,78 ± 1%
same,% Viability (±S.E.M.),human PBMCs; 72 hrs,81 ± 1%
same,Human IL-1β concentration,Human IL-1β,174 pg/mL
same,Human IL-12 concentration,Human IL-12,163 pg/mL
same,Human IFN-γ concentration,Human IFN-γ,165 pg/mL
